For this experiment, the system named is Alzheimer's disease-induced mouse model (amyloid beta1-42 peptide-infused mouse model). The experiment in a line: Morris water maze test (memory test). The class given is in vivo, C57BL/6 mouse. The conditions noted are these: Aβ-infused mice + donepezil 1 mg/kg (positive control); platform removed, 60 seconds free swimming; average ± S.E.M. As for the experimental part:
Specifically, the following experiment was carried out by applying a conventional Morris method. First, a mouse was transferred to a behavior observation chamber and stabilized one hour before the initiation of the experiment. The maze dimension includes a diameter of 90 cm and a height of 32.5 cm, and the diameter of a white platform is 5 cm. In the periphery of the underwater maze, spatial cues such as a computer system connected with a video camera and a device for controlling a water temperature were always regularly maintained. Afterward, the maze was filled with water so that the platform is installed 1 cm below the water level, such that a mouse cannot see the platform. The maze was divided into quadrants using four markers, the quadrants were classified as northeast (NE), northwest (NW), southeast (SE), and southwest (SW), and the platform was installed in one quadrant of the maze. […] On the sixth day, the platform was removed from the maze, and then the residence time of a mouse in the quadrant in which the platform was placed was measured. On the final day […] of the Morris water maze test, to perform a memory test, the platform was removed, free swimming was allowed for 60 seconds, and the residence time of a mouse in the quadrant in which the platform was placed was measured in percentage using a Smart program.

Take `COc1cc2c(cc1OC)C(=O)C(CC1CCN(Cc3ccccc3)CC1)C2` (stereo not shown) [donepezil]: the “Residence time in quadrant (%)” value was determined as 59.222±2.918%.

Source of the values: patent US20220080015A1, “METHOD OF PREVENTING AND TREATING NEURODEGENERATIVE DISORDERS USING SOPHORA JAPONICA L. EXTRACT AS ACTIVE INGREDIENT” (UNIVERSITY-INDUSTRY COOPERATION GROUP OF KYUNG HEE …, priority 2016, published 2022).
